pIC50: −log10 of the molar value. Calls of active or inactive are those of the source. The calls are words filed in the database; no cut-off is given here.
Test system: U2OS
Assay: Cytotoxicity against human U2OS cells assessed as reduction in cell viability incubated for 48 hrs by MTT assay
Format: functional, cell-based
Details: not given

Question: With O=C(Nc1cc(C(F)(F)F)cc(C(F)(F)F)c1)c1cc(Cl)ccc1O [IMD-0354] as the compound, how does the pIC50 read?
Answer: 4.29

Test system: MG-63
Assay: Cytotoxicity against human MG-63 cells assessed as reduction in cell viability incubated for 48 hrs by MTT assay
Format: functional, cell-based
Details: MG-63, 48 h

Question: With O=C(Nc1cc(C(F)(F)F)cc(C(F)(F)F)c1)c1cc(Cl)ccc1O [IMD-0354] as the compound, how does the pIC50 read?
Answer: 4.31

Test system: not listed separately
Assay: Cytotoxicity against human MIHA cells assessed as reduction in cell viability incubated for 48 hrs by MTT assay
Format: cell-based
Details: not given

Question: With O=C(Nc1cc(C(F)(F)F)cc(C(F)(F)F)c1)c1cc(Cl)ccc1O [IMD-0354] as the compound, how does the pIC50 read?
Answer: < 4.00

Test system: not listed separately
Assay: Cytotoxicity against human MIHA cells assessed as reduction in cell viability at 40 uM incubated for 48 hrs by MTT assay
Format: cell-based
Details: not given

Question: With COC(=O)CCn1ncc2c(NC(=O)c3cc(Cl)ccc3O)cccc21 as the compound, how does the Activity read?
Answer: Non-Toxic

Question: For O=C(Nc1cccc2nn(CCO)cc12)c1cc(Cl)ccc1O, which Activity is on record?
Answer: Non-Toxic

Question: With O=C(Nc1ccc2cn[nH]c2c1)c1cc(Cl)ccc1O as the compound, how does the Activity read?
Answer: Non-Toxic

Question: With O=C(Nc1cccc2[nH]ccc12)c1cc(Cl)ccc1O as the compound, how does the Activity read?
Answer: Non-Toxic

Question: For O=C(Nc1ccc2[nH]ncc2c1)c1cc(Cl)ccc1O, which Activity is on record?
Answer: Non-Toxic

Question: With O=C(Nc1ccc2[nH]ccc2c1)c1cc(Cl)ccc1O as the compound, how does the Activity read?
Answer: Non-Toxic

Question: With O=C(Nc1cccc2c1cnn2C(=O)c1c(Cl)cccc1Cl)c1cc(Cl)ccc1O as the compound, how does the Activity read?
Answer: Non-Toxic

Question: For CN(C)C(=O)Cn1ncc2c(NC(=O)c3cc(Cl)ccc3O)cccc21, which Activity is on record?
Answer: Non-Toxic

Question: For O=C(Nc1cc(C(F)(F)F)cc(C(F)(F)F)c1)c1cc(Cl)ccc1O [IMD-0354], which Activity is on record?
Answer: Non-Toxic

Question: With O=C(O)CCn1ncc2c(NC(=O)c3cc(Cl)ccc3O)cccc21 as the compound, how does the Activity read?
Answer: Non-Toxic

Question: With O=C(Nc1cccc2cn[nH]c12)c1cc(Cl)ccc1O as the compound, how does the Activity read?
Answer: Non-Toxic

Question: Which Activity does the source give for COc1ccc(NC(=O)n2ncc3c(NC(=O)c4cc(Cl)ccc4O)cccc32)cc1 here?
Answer: Non-Toxic

Question: For O=C(O)CCn1cc2c(NC(=O)c3cc(Cl)ccc3O)cccc2n1, which Activity is on record?
Answer: Non-Toxic

Question: For O=C(Nc1cccc2c1cnn2CCO)c1cc(Cl)ccc1O, which Activity is on record?
Answer: Non-Toxic

Question: With CN(C)C(=O)n1ncc2c(NC(=O)c3cc(Cl)ccc3O)cccc21 as the compound, how does the Activity read?
Answer: Non-Toxic

Question: With O=C(Nc1cccc2c1cnn2C(=O)N1CCOCC1)c1cc(Cl)ccc1O as the compound, how does the Activity read?
Answer: Non-Toxic

Question: Which Activity does the source give for O=C(Nc1cccc2[nH]ncc12)c1cc(Cl)ccc1O here?
Answer: Non-Toxic

Question: Which Activity does the source give for CN(C)C(=O)Cn1cc2c(NC(=O)c3cc(Cl)ccc3O)cccc2n1 here?
Answer: Non-Toxic

Question: Which Activity does the source give for COC(=O)CCn1cc2c(NC(=O)c3cc(Cl)ccc3O)cccc2n1 here?
Answer: Non-Toxic

Question: With O=C(Nc1cccc2cc[nH]c12)c1cc(Cl)ccc1O as the compound, how does the Activity read?
Answer: Non-Toxic

Question: For CN(C)c1ccc(C(=O)n2ncc3c(NC(=O)c4cc(Cl)ccc4O)cccc32)cc1, which Activity is on record?
Answer: Non-Toxic

Target: Focal adhesion kinase 1 (Homo sapiens) (UniProt Q05397)
Assay: Inhibition of FAK phosphorylation in human U2OS cells at 5 to 20 uM incubated for 48 hrs by Western blot analysis
Format: cell-based
Details: dose 5-20 µM

Chain of Focal adhesion kinase 1 (Homo sapiens) (Q05397 2-1052 limits assumed): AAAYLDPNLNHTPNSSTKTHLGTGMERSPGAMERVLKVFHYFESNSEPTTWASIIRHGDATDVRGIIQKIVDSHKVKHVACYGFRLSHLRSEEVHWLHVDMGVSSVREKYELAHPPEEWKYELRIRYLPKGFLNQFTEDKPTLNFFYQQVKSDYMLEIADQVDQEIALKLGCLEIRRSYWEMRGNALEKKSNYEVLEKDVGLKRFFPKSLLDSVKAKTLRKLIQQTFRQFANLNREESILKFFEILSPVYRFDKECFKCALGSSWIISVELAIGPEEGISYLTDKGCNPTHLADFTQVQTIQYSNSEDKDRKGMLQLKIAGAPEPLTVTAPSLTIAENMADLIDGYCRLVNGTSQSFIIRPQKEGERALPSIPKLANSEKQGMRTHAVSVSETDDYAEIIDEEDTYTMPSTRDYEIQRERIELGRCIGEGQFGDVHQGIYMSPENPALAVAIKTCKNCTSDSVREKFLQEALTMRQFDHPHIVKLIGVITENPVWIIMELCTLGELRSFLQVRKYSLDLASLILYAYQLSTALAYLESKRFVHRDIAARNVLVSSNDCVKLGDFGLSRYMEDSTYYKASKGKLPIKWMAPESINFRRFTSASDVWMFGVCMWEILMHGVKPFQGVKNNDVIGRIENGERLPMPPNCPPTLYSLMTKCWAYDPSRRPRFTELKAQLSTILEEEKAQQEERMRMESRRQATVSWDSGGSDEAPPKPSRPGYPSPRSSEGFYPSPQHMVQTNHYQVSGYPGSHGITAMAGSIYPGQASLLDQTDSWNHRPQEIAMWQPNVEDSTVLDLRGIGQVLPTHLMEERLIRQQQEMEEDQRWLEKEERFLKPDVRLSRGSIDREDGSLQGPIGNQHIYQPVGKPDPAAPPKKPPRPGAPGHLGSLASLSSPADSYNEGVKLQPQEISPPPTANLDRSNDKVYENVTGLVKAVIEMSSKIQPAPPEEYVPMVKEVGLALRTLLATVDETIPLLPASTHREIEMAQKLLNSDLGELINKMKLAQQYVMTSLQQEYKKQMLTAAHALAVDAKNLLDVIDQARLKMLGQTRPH

Question: With O=C(Nc1ccc2c(cnn2C(=O)c2ccccc2)c1)c1cc(Cl)ccc1O as the compound, how does the inhibition read?
Answer: Active

Target: Focal adhesion kinase 1 (Homo sapiens) (UniProt Q05397)
Assay: Inhibition of FAK phosphorylation in human MG-63 cells at 5 to 20 uM incubated for 48 hrs by Western blot analysis
Format: cell-based
Details: dose 5-20 µM

Question: For O=C(Nc1ccc2c(cnn2C(=O)c2ccccc2)c1)c1cc(Cl)ccc1O, which inhibition is on record?
Answer: Active

From ChEMBL document CHEMBL4732176, “Synthesis and biological evaluation of novel N-substituted benzamides as anti-migration agents for treatment of osteosarcoma” (Eur J Med Chem, 2021)
